Source: patent US9771370B2, “Compounds for the inhibition of indoleamine-2,3-dioxygenase” (Merck Patent GmbH, priority 2014, dated 2017)

Target: Recombinant human IDO (Homo sapiens, UniProt P14902)
Experiment: Bridge-IT tryptophan fluorescence assay of human IDO-1 inhibition
Type: biochemical
Details: recombinant human IDO 7.5 nM, L-tryptophan
In short: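 One variant ran L-Trp at 100 μM for 90 min at 37 °C. The other pre-incubated compound for 30 min at 25 °C, then ran 50 μM L-Trp for 60 min at 25 °C.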

Sequence of Recombinant human IDO (P14902 whole entry): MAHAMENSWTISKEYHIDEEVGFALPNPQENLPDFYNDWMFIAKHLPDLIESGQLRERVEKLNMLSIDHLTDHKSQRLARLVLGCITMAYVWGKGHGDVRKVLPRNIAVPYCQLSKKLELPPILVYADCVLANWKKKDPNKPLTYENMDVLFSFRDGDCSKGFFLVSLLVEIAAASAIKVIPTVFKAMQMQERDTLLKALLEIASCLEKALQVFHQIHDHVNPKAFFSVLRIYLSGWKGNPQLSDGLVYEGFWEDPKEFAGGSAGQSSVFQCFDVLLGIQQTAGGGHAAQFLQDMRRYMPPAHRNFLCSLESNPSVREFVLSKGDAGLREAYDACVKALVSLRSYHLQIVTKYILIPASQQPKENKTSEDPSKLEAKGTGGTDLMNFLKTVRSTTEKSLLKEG

IC50 [nM] | Structure (SMILES)
< 100 | OCC1CCC(F)(CCC2c3c(F)cccc3-c3cncn32)CC1 (single isomer, unassigned) [Compound 84c, [4-fluoro-4-[2-[6-fluoro-5H-imidazo[4,3-a]isoindol-5-yl]ethyl]cyclohexyl]methanol]
> 1000 | OCC1CCC(F)(CCC2c3c(Cl)cccc3-c3cncn32)CC1 (single isomer, unassigned) [Compound 105a, [4-[2-[6-chloro-5H-imidazo[4,3-a]isoindol-5-yl]ethyl]-4-fluorocyclohexyl]methanol]
> 1000 | OC1CCC(F)(CCC2c3cccc(F)c3-c3cncn32)CC1 (single isomer, unassigned) [Compound 35a, 4-fluoro-4-(2-(9-fluoro-5H-imidazo[5,1-a]isoindol-5-yl)ethyl)cyclohexanol]
< 100 | O=C(O)C1CCC(F)(CCC2c3ccccc3-c3cncn32)CC1 (single isomer, unassigned) [Compound 82a, 4-fluoro-4-(2-[5H-imidazo[4,3-a]isoindol-5-yl]ethyl)cyclohexane-1-carboxylic acid]
100 to 1000 | OC1CCC(F)(CCC2c3c(Cl)cccc3-c3cncn32)CC1 (single isomer, unassigned) [Compound 71a, 4-[2-[6-chloro-5H-imidazo[4,3-a]isoindol-5-yl]ethyl]-4-fluorocyclohexan-1-ol]
> 1000 | NC1CCC(F)(CCC2c3ccccc3-c3cncn32)CC1 (mixture of isomers) [Compound 104a, 4-fluoro-4-(2-[5H-imidazo[4,3-a]isoindol-5-yl]ethyl)cyclohexan-1-amine]
> 1000 | NC(=O)C1CCC(F)(CCC2c3c(Cl)cccc3-c3cncn32)CC1 (single isomer, unassigned) [Compound 99d, 4-[2-[6-chloro-5H-imidazo[4,3-a]isoindol-5-yl]ethyl]-4-fluorocyclohexane-1-carboxamide]
< 100 | CC(C)(O)C1CCC(F)(CCC2c3ccccc3-c3cncn32)CC1 (single isomer, unassigned) [Compound 61c, 2-[4-fluoro-4-[2-[5H-imidazo[4,3-a]isoindol-5-yl]ethyl]cyclohexyl]propan-2-ol]
< 100 | O=C(C1CCC(F)(CCC2c3c(F)cccc3-c3cncn32)CC1)N1CCCCC1 (stereo not drawn) [Compound 110a]
> 1000 | CC1(C)CCC(F)(CCC2c3c(F)cccc3-c3cncn32)CC1 (single isomer, unassigned) [Compound 23a, 6-fluoro-5-(2-(1-fluoro-4,4-dimethylcyclohexyl)ethyl)-5H-imidazo[5,1-a]isoindole]
> 1000 | OC1CCC(F)(CCC2c3nccc(F)c3-c3cncn32)CC1 (stereo not drawn) [Compound 103b, 4-fluoro-4-(2-[12-fluoro-4,6,9-triazatricyclo[6.4.0.0^[2,6]]dodeca-1(8),2,4,9,11-pentaen-7-yl]ethyl)cyclohexan-1-ol]
< 100 | O[C@H]1CC[C@](F)(CC[C@H]2c3ccccc3-c3cncn32)CC1 [Compound 14b, (1S,4s)-4-(2-((S)-5H-imidazo[5,1-a]isoindol-5-yl)ethyl)-4-fluorocyclohexan-1-ol]
100 to 1000 | OC1CCC(F)(CCC2c3c(F)cccc3-c3cncn32)CC1 (single isomer, unassigned) [Compound 16b, 4-fluoro-4-(2-(6-fluoro-5H-imidazo[5,1-a]isoindol-5-yl)ethyl)cyclohexanol]
< 100 | NC(=O)CC1CCC(F)(CCC2c3c(F)cccc3-c3cncn32)CC1 (single isomer, unassigned) [Compound 116d, 2-[4-Fluoro-4-[2-[6-fluoro-5H-imidazo[4,3-a]isoindol-5-yl]ethyl]cyclohexyl]acetamide]

The remaining lines, values behind:

Structure (SMILES) | IC50 [nM]
CC(C)(O)C1CCC(F)(CCC2c3ccccc3-c3cncn32)CC1 (single isomer, unassigned) [Compound 61b, 2-[4-fluoro-4-[2-[5H-imidazo[4,3-a]isoindol-5-yl]ethyl]cyclohexyl]propan-2-ol] | > 1000
Fc1ccc(F)c2c1-c1cncn1C2CCC1(F)CCCCC1 (single isomer, unassigned) [Compound 37a, 6,9-difluoro-5-(2-(1-fluorocyclohexyl)ethyl)-5H-imidazo[5,1-a]isoindole] | > 1000
OC(CC1c2nc(C(F)(F)F)ccc2-c2cncn21)C1CCC(F)(F)CC1 (single isomer, unassigned) [Compound 77b, 1-(4,4-difluorocyclohexyl)-2-[10-(trifluoromethyl)-4,6,9-triazatricyclo[6.4.0.0^[2,6]]dodeca-1(8),2,4,9,11-pentaen-7-yl]ethan-1-ol] | > 1000
CC(C)(O)C1CCC(F)(CCC2c3ccccc3-c3cncn32)CC1 (single isomer, unassigned) [Compound 61d, 2-[4-fluoro-4-[2-[5H-imidazo[4,3-a]isoindol-5-yl]ethyl]cyclohexyl]propan-2-ol] | < 100
NC(=O)C1CCC(C(O)CC2c3ncccc3-c3cncn32)CC1 (stereo not drawn) [Compound 63a, 4-[1-hydroxy-2-[4,6,9-triazatricyclo[6.4.0.0^[2,6]]dodeca-1(8),2,4,9,11-pentaen-7-yl]ethyl]cyclohexane-1-carboxamide] | > 1000
OC(CC1c2nc(C3CC3)ccc2-c2cncn21)C1CCCCC1 (single isomer, unassigned) [Compound 56c, 1-cyclohexyl-2-[10-cyclopropyl-4,6,9-triazatricyclo[6.4.0.0^[2,6]]dodeca-1(8),2,4,9,11-pentaen-7-yl]ethan-1-ol] | > 1000
OC1CCC(C(F)(F)CC2c3c(F)cccc3-c3cncn32)CC1 (stereo not drawn) [Compound 75a, 4-(1,1-difluoro-2-[6-fluoro-5H-imidazo[4,3-a]isoindol-5-yl]ethyl)cyclohexan-1-ol] | < 100
NC(CC1c2ncccc2-c2cncn21)C1CCCCC1 (stereo not drawn) [Compound 21a, 1-cyclohexyl-2-[4,6,9-triazatricyclo[6.4.0.0^[2,6]]dodeca-1(8),2,4,9,11-pentaen-7-yl]ethan-1-amine] | > 1000
OC(CC1c2ncccc2-c2cncn21)C1CCOCC1 (single isomer, unassigned) [Compound 92a, 1-(oxan-4-yl)-2-[4,6,9-triazatricyclo[6.4.0.0^[2,6]]dodeca-1(8),2,4,9,11-pentaen-7-yl]ethan-1-ol] | > 1000
Fc1cccc2c1-c1cncn1C2CCC1(F)CCCCC1 (single isomer, unassigned) [Compound 36b, 9-fluoro-5-(2-(1-fluorocyclohexyl)ethyl)-5H-imidazo[5,1-a]isoindole] | > 1000
NS(=O)(=O)C1CCC(F)(CCC2c3ccccc3-c3cncn32)CC1 (single isomer, unassigned) [Compound 121d, 4-fluoro-4-[2-[5H-imidazo[4,3-a]isoindol-5-yl]ethyl]cyclohexane-1-sulfonamide] | < 100
OC(CC1c2ncccc2-c2cncn21)C1(F)CCC(F)(F)CC1 (single isomer, unassigned) [Compound 87a, 2-[4,6,9-triazatricyclo[6.4.0.0^[2,6]]dodeca-1(8),2,4,9,11-pentaen-7-yl]-1-(1,4,4-trifluorocyclohexyl)ethan-1-ol] | > 1000
COc1ccc2c(n1)C(CC(O)C1CCC3(CC1)CC3)n1cncc1-2 (stereo not drawn) [Compound 53a, 2-[10-methoxy-4,6,9-triazatricyclo[6.4.0.0^[2,6]]dodeca-1(8),2,4,9,11-pentaen-7-yl]-1-[spiro[2.5]octan-6-yl]ethan-1-ol] | 100 to 1000
